In assay [1] the target is CRBN/DDB1 (Homo sapiens (Human), UniProt Q96SW2). The class given is binding. Particulars: His tagged CRBN+DDB-DLS7+CXU4, Cy5-labeled Thalidomide probe, one hour incubation; read-out: CRBN HTRF IC50. The procedure: The binding potency was determined using H-TRF assay technology (Perkin Elmer). Compounds were serially diluted in DMSO and 0.2 μL volume was transferred to white 384-well plate.
(In general: In TR-FRET formats the signal depends on donor and acceptor labels being close together.)

For assay [2], the target named is ER in MCF-7 cells (Homo sapiens (Human), UniProt P03372). Briefly: In-cell western (ICW) ER degradation assay in MCF-7 cells (Compounds A1-A70). The class given is cell-based. As to conditions: for DC50: ER degradation, MCF-7 cells, 16 hrs treatment, 0.02 to 300 nM, read-out: MCF7 ICW DC50; for Dmax: MCF7, read-out: MCF7 ICW Dmax (%). The procedure:
(§1) ERa degradative activity of compounds can be assessed in MCF-7 and T47D Cells. MCF-7 and T47D cell are seeded and are subsequently treated with the compounds at certain concentrations (e.g., 0.02 to 300 nM). DMSO can be used as vehicle control. Cells are fixed and are blocked with Intercept (PBS) Blocking Buffer (e.g., Li—COR, Odyssey Blocking Buffer), and are stained with ER (e.g., 1:500, Cell signaling) primary antibody for overnight at cold room. Secondary Antibody (e.g., IRDye 800CW Goat anti-Rabbit IgG) and CellTag 700 Stain are added in Intercept (PBS) Blocking Buffer. Finally, cell plate is placed in incubator to dry. Image and signal are captured on Odyssey® DLx Imaging System.
(§2) Day 3: After 16 hrs of compounds treatment, cells were fixed by 4% PFA and permeabilized with elution buffer (0.1% Triton X-100 in 1% PBS Solution). Subsequently, cells were blocked with Intercept (PBS) Blocking Buffer (Li—COR, Odyssey Blocking Buffer), and were stained with ER (1:500, Cell signaling) primary antibody for overnight at cold room.
(§3) Day 4: Remove the buffer, add IRDye 800CW Goat anti-Rabbit IgG Secondary Antibody (1:2000) and CellTag 700 Stain (1:500) in Intercept (PBS) Blocking Buffer. Finally, cell plate is placed in incubator to dry. Image and signal were captured on Odyssey® DLx Imaging System.

Assay [3] addresses ER in T47D cells (Homo sapiens (Human), UniProt P03372). Briefly: In-cell western (ICW) ER degradation assay in T47D cells (Compounds A1-A70). The class given is cell-based. Particulars: for DC50: ER degradation, 0.02 to 300 nM; for Dmax: T47D, read-out: T47D ICW Dmax (%). The procedure: as §1, §2, §3
Assay [4] concerns the target ER (Homo sapiens (Human), UniProt P03372). As to the kind of experiment: In-cell western blot analysis of relative ER percentage (Compounds B1-B278). The class given is cell-based. As to conditions: ER degradation, 16 hours, read-out: ICW DC50. In outline:
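In-cell western: after 16 h compound exposure (0.5% DMSO final), fixed and permeabilized cells are probed with anti-ER plus anti-GAPDH and near-infrared secondaries. Relative ER percentage compares treated wells against untreated and DMSO wells taken as 100%; seeding 40,000 or 10,000 cells/well.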

Assay [5] in a line: Cell growth assay (WST-8) (Compounds B1-B278). The class given is cell-based. As to conditions: 96 h; T47D cell line; WST-8, 4 days; read-out: Cell Growth Inhibition in T47D cell line IC50. Summed up:
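Read-out is WST-8 absorbance at 450 nm (2.5 h, 37° C) as a fraction of vehicle control, from three separate repeats. Compound exposure lasted 4 days, starting one day after plating 1500 cells/well.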

From patent US20260007681A1, “INDOLE DERIVATIVES AS ESTROGEN RECEPTOR DEGRADERS” (REGENTS OF THE UNIVERSITY OF MICHIGAN, priority 2022, published 2026) come the findings set out here.

Read-outs that look alike come from different tables or passages of the source.

Sequence of ER in T47D cells (P03372 whole entry): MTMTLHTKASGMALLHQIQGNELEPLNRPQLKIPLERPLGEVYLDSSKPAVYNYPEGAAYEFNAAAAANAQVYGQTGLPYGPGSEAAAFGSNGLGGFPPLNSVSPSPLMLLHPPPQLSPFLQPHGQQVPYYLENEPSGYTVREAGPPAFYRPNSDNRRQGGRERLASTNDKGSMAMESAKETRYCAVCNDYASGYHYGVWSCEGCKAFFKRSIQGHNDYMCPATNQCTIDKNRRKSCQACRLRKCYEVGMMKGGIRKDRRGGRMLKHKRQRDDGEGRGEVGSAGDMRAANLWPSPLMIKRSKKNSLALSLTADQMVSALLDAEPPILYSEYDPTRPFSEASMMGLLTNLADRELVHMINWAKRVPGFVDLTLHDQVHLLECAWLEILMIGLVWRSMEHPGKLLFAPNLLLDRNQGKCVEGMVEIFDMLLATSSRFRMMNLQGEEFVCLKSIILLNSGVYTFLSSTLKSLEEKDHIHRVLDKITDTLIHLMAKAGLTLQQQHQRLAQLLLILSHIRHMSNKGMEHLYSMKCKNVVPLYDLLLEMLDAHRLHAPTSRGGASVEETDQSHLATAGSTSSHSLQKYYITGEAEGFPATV
Sequence of ER (P03372 whole entry): as above
Sequence of ER in MCF-7 cells (P03372 whole entry): as above
Sequence of CRBN/DDB1 (Q96SW2 whole entry): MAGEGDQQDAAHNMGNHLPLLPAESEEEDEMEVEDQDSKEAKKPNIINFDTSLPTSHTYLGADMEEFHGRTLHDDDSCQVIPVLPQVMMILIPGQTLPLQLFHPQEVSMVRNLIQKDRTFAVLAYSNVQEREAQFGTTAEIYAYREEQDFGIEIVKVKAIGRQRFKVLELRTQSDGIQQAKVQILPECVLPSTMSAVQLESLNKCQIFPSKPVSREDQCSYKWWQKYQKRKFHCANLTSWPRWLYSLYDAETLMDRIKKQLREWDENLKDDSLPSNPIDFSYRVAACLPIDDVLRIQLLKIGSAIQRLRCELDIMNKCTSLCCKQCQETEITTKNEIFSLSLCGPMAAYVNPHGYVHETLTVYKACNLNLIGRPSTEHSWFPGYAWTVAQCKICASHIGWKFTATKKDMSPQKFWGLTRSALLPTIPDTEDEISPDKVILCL
Sequence of CRBN/DDB1 (Q16531 whole entry partner): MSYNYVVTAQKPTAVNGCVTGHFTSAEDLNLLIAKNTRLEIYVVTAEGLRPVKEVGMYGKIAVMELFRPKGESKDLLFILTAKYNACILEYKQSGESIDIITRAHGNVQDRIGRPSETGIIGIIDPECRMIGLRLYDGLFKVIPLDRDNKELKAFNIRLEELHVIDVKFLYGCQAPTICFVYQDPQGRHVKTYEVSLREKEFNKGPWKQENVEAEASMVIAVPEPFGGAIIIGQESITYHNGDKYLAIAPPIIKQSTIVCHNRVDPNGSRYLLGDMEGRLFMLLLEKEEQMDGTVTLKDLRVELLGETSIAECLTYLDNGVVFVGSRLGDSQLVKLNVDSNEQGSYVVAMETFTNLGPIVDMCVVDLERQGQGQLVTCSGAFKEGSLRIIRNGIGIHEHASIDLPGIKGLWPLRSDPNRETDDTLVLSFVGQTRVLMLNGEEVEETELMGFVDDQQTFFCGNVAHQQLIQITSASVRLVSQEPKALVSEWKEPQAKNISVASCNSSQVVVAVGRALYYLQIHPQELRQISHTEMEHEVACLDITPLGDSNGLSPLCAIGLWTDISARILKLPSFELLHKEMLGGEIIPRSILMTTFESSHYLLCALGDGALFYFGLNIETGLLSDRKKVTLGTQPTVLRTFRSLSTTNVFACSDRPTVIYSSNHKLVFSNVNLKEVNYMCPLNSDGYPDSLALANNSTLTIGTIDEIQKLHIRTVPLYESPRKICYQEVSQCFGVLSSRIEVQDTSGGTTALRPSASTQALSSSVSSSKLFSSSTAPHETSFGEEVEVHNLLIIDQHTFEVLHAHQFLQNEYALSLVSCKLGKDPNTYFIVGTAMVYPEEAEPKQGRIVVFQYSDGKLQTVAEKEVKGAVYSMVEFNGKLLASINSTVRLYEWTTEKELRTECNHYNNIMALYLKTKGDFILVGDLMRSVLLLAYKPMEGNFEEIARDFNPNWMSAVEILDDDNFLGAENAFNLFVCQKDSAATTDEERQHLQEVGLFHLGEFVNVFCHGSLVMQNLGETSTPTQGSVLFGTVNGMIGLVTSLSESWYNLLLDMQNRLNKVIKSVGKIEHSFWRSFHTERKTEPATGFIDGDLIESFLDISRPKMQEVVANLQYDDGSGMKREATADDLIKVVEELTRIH

For orientation: IC50 means the concentration at which inhibition is half-maximal. For `C[C@@H]1Cc2c([nH]c3ccccc23)[C@@H](c2cnc(N3CCC(N4CCN(c5ccc(NC6CCC(=O)NC6=O)cc5F)CC4)CC3)nc2)N1CC(F)F` (stereo partly drawn) [Compound A1, 3-((4-(4-(1-(5-((1R,3R)-2-(2,2-difluoroethyl)-3-methyl-2,3,4,9-tetrahydro-1H-pyrido[3,4-b]indol-1-yl)pyrimidin-2-yl)piperidin-4-yl)piperazin-1-yl)-3-fluorophenyl)amino)piperidine-2,6-dione], the IC50 in assay [1] lay within 500 to 5000 nM.
`C[C@@H]1Cc2c([nH]c3ccccc23)[C@@H](c2cnc(N3CCC(N4CCC(c5ccc(NC6CCC(=O)NC6=O)cc5F)CC4)CC3)nc2)N1CC(F)F` (stereo partly drawn) [Compound A3, 3-((4-(1′-(5-((1R,3R)-2-(2,2-difluoroethyl)-3-methyl-2,3,4,9-tetrahydro-1H-pyrido[3,4-b]indol-1-yl)pyrimidin-2-yl)-[1,4′-bipiperidin]-4-yl)-3-fluorophenyl)amino)piperidine-2,6-dione]: the IC50 in assay [1] is 50 to 500 nM.
Broadly, the DC50 is the midpoint of the concentration-degradation curve. The term Dmax denotes the greatest extent of degradation seen. Take `COc1cc(N2CCC(CN3CCN4c5cc6c(cc5OC[C@H]4C3)C(=O)N([C@@H]3CCC(=O)NC3=O)C6)CC2)ccc1[C@@H]1c2[nH]c3ccccc3c2C[C@@H](C)N1CC(F)F` [Compound A48, (R)-3-((R)-3-((1-(4-((1R,3R)-2-(2,2-difluoroethyl)-3-methyl-2,3,4,9-tetrahydro-1H-pyrido[3,4-b]indol-1-yl)-3-methoxyphenyl)piperidin-4-yl)methyl)-8-oxo-1,2,3,4,4a,5,8,10-octahydro-9H-pyrazino[1′,2′:4,5][1,4]oxazino[2,3-f]isoindol-9-yl)piperidine-2,6-dione]: the DC50 is less than 1 nM in assay [2] and less than 1 nM in assay [3] (T47D cells, 16 hrs treatment). Also, the Dmax in assay [2] is more than 75%; in assay [3] (maximal ER degradation, T47D cells, 16 hrs treatment), more than 75%.
Take `C[C@H]1Cc2c([nH]c3ccccc23)[C@H](c2cnc(N3CCC4(CC3)C[C@@H](CN3CCN5c6cc7c(cc6OC[C@@H]5C3)C(=O)N([C@@H]3CCC(=O)NC3=O)C7)CO4)nc2)N1CC(F)F` [Compound A68, (R)-3-((S)-3-(((S)-8-(5-((1S,3S)-2-(2,2-difluoroethyl)-3-methyl-2,3,4,9-tetrahydro-1H-pyrido[3,4-b]indol-1-yl)pyrimidin-2-yl)-1-oxa-8-azaspiro[4.5]decan-3-yl)methyl)-8-oxo-1,2,3,4,4a,5,8,10-octahydro-9H-pyrazino[1′,2′:4,5][1,4]oxazino[2,3-f]isoindol-9-yl)piperidine-2,6-dione]: the DC50 in assay [2] was less than 1 nM; in assay [3] (T47D cells, 16 hrs treatment) it was less than 1 nM. Moreover, the Dmax in assay [2] is 50 to 75%; in assay [3] it was more than 75%.
As for `C[C@@H]1Cc2c([nH]c3ccccc23)[C@@H](c2cnc(N3CCC4(CC3)OCC(CN3CCN5c6ccc7c(c6OC[C@H]5C3)CN([C@H]3CCC(=O)NC3=O)C7=O)CO4)nc2)N1CC(F)(F)CO` [Compound B272, (S)-3-((R)-7-((9-(5-((1R,3R)-2-(2,2-difluoro-3-hydroxypropyl)-3-methyl-2,3,4,9-tetrahydro-1H-pyrido[3,4-b]indol-1-yl)pyrimidin-2-yl)-1,5-dioxa-9-azaspiro[5.5]undecan-3-yl)methyl)-1-oxo-1,3,5,5a,6,7,8,9-octahydro-2H-pyrazino[1′,2′:4,5][1,4]oxazino[2,3-e]isoindol-2-yl)piperidine-2,6-dione], in assay [4], the 50% degradation concentration (DC50) is 10 to 100 nM. Also, the IC50 in assay [5] was less than 1 nM.
As to `COc1cc(N2CCC3(CC2)OCC(CN2CCN4c5cc6c(cc5OC[C@H]4C2)C(=O)N(C2CCC(=O)NC2=O)C6)CO3)ccc1[C@@H]1c2[nH]c3ccccc3c2C[C@@H](C)N1CC(F)F` (stereo partly drawn) [Compound B273, 3-((R)-3-((9-(4-((1R,3R)-2-(2,2-difluoroethyl)-3-methyl-2,3,4,9-tetrahydro-1H-pyrido[3,4-b]indol-1-yl)-3-methoxyphenyl)-1,5-dioxa-9-azaspiro [5.5]undecan-3-yl)methyl)-8-oxo-1,2,3,4,4a,5,8,10-octahydro-9H-pyrazino[1′,2′:4,5][1,4]oxazino[2,3-f]isoindol-9-yl)piperidine-2,6-dione], the DC50 in assay [4] is 10 to 100 nM. Besides, the IC50 in assay [5] was 1 to 10 nM.
The corresponding values for `COc1cc(N2CCC3(CC2)OCC(CN2CCC4(CC2)COc2c4ccc4c2CN(C2CCC(=O)NC2=O)C4=O)CO3)ccc1[C@@H]1c2[nH]c3ccccc3c2C[C@@H](C)N1CC(F)F` (stereo partly drawn) [Compound B274, 3-(1′-((9-(4-((1R,3R)-2-(2,2-difluoroethyl)-3-methyl-2,3,4,9-tetrahydro-1H-pyrido[3,4-b]indol-1-yl)-3-methoxyphenyl)-1,5-dioxa-9-azaspiro[5.5]undecan-3-yl)methyl)-6-oxo-6,8-dihydro-2H,7H-spiro[furo[2,3-e]isoindole-3,4′-piperidin]-7-yl)piperidine-2,6-dione] are 10 to 100 nM and less than 1 nM.
On to `C[C@@H]1Cc2c([nH]c3ccccc23)[C@@H](c2cnc(N3CC4(C3)OCC(CN3CCN5c6ccc7c(c6OC[C@H]5C3)CN([C@H]3CCC(=O)NC3=O)C7=O)CO4)nc2)N1CC(F)(F)CO` [Compound B275, (S)-3-((R)-7-((2-(5-((1R,3R)-2-(2,2-difluoro-3-hydroxypropyl)-3-methyl-2,3,4,9-tetrahydro-1H-pyrido[3,4-b]indol-1-yl)pyrimidin-2-yl)-5,9-dioxa-2-azaspiro[3.5]nonan-7-yl)methyl)-1-oxo-1,3,5,5a,6,7,8,9-octahydro-2H-pyrazino[1′,2′:4,5][1,4]oxazino[2,3-e]isoindol-2-yl)piperidine-2,6-dione], for which, in assay [4], the DC50 was more than 100 nM. The IC50 in assay [5] was more than 10 nM.
Take `C[C@@H]1Cc2c([nH]c3ccccc23)[C@@H](c2cnc(N3CC4(C3)OCC(CN3CCN5c6cc7c(cc6OC[C@@H]5C3)C(=O)N(C3CCC(=O)NC3=O)C7)CO4)nc2)N1CC(F)(F)CO` (stereo partly drawn) [Compound B276, 3-((S)-3-((2-(5-((1R,3R)-2-(2,2-difluoro-3-hydroxypropyl)-3-methyl-2,3,4,9-tetrahydro-1H-pyrido[3,4-b]indol-1-yl)pyrimidin-2-yl)-5,9-dioxa-2-azaspiro[3.5]nonan-7-yl)methyl)-8-oxo-1,2,3,4,4a,5,8,10-octahydro-9H-pyrazino[1′,2′:4,5][1,4]oxazino[2,3-f]isoindol-9-yl)piperidine-2,6-dione]: the DC50 in assay [4] was more than 100 nM. Besides, in assay [5], the IC50 is more than 10 nM.
The corresponding values for `COc1cc(N2CC3(CCC(CN4CCN5c6ccc7c(c6OC[C@H]5C4)CN(C4CCC(=O)NC4=O)C7=O)CO3)C2)ccc1[C@@H]1c2[nH]c3ccccc3c2C[C@@H](C)N1CC(F)F` (stereo partly drawn) [Compound B277, 3-((5aR)-7-((2-(4-((1R,3R)-2-(2,2-difluoroethyl)-3-methyl-2,3,4,9-tetrahydro-1H-pyrido[3,4-b]indol-1-yl)-3-methoxyphenyl)-5-oxa-2-azaspiro[3.5]nonan-7-yl)methyl)-1-oxo-1,3,5,5a,6,7,8,9-octahydro-2H-pyrazino[1′,2′:4,5][1,4]oxazino[2,3-e]isoindol-2-yl)piperidine-2,6-dione] are 10 to 100 nM and 1 to 10 nM.
`COc1cc(N2CC3(CCC(CN4CCN5c6cc7c(cc6OC[C@@H]5C4)C(=O)N(C4CCC(=O)NC4=O)C7)CO3)C2)ccc1[C@@H]1c2[nH]c3ccccc3c2C[C@@H](C)N1CC(F)F` (stereo partly drawn) [Compound B278, 3-((4aS)-3-((2-(4-((1R,3R)-2-(2,2-difluoroethyl)-3-methyl-2,3,4,9-tetrahydro-1H-pyrido[3,4-b]indol-1-yl)-3-methoxyphenyl)-5-oxa-2-azaspiro[3.5]nonan-7-yl)methyl)-8-oxo-1,2,3,4,4a,5,8,10-octahydro-9H-pyrazino[1′,2′:4,5][1,4]oxazino[2,3-f]isoindol-9-yl)piperidine-2,6-dione]: the DC50 in assay [4] is 10 to 100 nM. In addition, the IC50 in assay [5] was 1 to 10 nM.
